Among the test systems are 786-0; A549; BT-549; EKVX; HOP-92; KM12; MOLT-4; NCI-H460; NCI-H522; OVCAR-3; OVCAR-4; RPMI-8226; SK-MEL-28; SK-MEL-2; SK-MEL-5; SN12C; SW-620; UO-31; COLO 205; PC-3.
Holding throughout (assay): NCI anticancer screen, dose series, 48 h

This is an account of results in ChEMBL document CHEMBL1201862, “PubChem BioAssay data set” (2004).

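Cells were grown in 96-well plates and exposed to each compound for 48 hours at five concentrations; endpoints were interpolated linearly between bracketing concentrations, or set to the highest concentration if not reached. GI50 = concentration required for 50% inhibition of growth.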 Active and inactive are the calls of the source. Cut-off read from the data, not from the text of the source: active = GI50 up to about 1.1 µM and inactive = higher.

As for `CC(C)(C)OC(=O)NC(CCC(=O)OCc1ccccc1)C(=O)NCCCO` (stereo not drawn), the GI50 in the test with 786-0, with A549, in the test with BT-549, in the test with EKVX, in the test with HOP-92 and with KM12 was > 100 µM (inactive) throughout. The GI50 in the test with MOLT-4, in the test on NCI-H460, in the test with NCI-H522, in the test on OVCAR-3, in the test on OVCAR-4 and with RPMI-8226 was > 100 µM (inactive) throughout. The GI50 in the test with SK-MEL-28, in the test on SK-MEL-2, with SK-MEL-5, with SN12C, in the test on SW-620 and in the test with UO-31 was > 100 µM (inactive) throughout.

Turning to `Nc1nc(N)c2ncn(-c3ccc(Cl)cc3)c2n1`, the GI50 in the test with 786-0 was 70.3 µM (inactive); in the test on A549, 37 µM (inactive); with COLO 205, 75.5 µM (inactive); with EKVX it was 10.1 µM (inactive); with HOP-92, 24.8 µM (inactive); with KM12, 26.8 µM (inactive). For the same compound, the GI50 with NCI-H522 is 28.6 µM (inactive); with OVCAR-3 it was 40.6 µM (inactive); in the test on OVCAR-4, 80.5 µM (inactive); in the test on PC-3 it was 35.7 µM (inactive); with SK-MEL-28, > 100 µM (inactive); in the test on SK-MEL-2, 39.6 µM (inactive). In addition, the GI50 with SK-MEL-5 is 23.6 µM (inactive); in the test on SN12C, 36.6 µM (inactive); with UO-31 it was 32.3 µM (inactive).

`COC1CCN(N(C)C)O1` (stereo not drawn): the GI50 in the test on 786-0, with A549, in the test on BT-549, in the test on COLO 205, in the test with EKVX and in the test with KM12 was > 100 µM (inactive) throughout. In addition, the GI50 in the test on MOLT-4, with NCI-H460, in the test with NCI-H522, in the test with OVCAR-3, in the test on OVCAR-4 and in the test on PC-3 was > 100 µM (inactive) in each case. The GI50 in the test with RPMI-8226, with SK-MEL-28, in the test on SK-MEL-2, in the test with SK-MEL-5, with SN12C and in the test on SW-620 was > 100 µM (inactive) throughout. Besides, the GI50 in the test with UO-31 is > 100 µM (inactive).

As for `c1ccc2cc3c(NC4=NCCO4)cccc3cc2c1`, the GI50 in the test with 786-0 is 57 µM (inactive); in the test on A549, > 100 µM (inactive); in the test on COLO 205, 35.9 µM (inactive); in the test with EKVX, 76.2 µM (inactive); in the test on HOP-92 it was 17.6 µM (inactive); in the test with KM12, 44.7 µM (inactive). The GI50 was 31.1 µM (inactive) in the test with MOLT-4; 29 µM (inactive) with NCI-H460; > 100 µM (inactive) with NCI-H522; 32.2 µM (inactive) in the test on OVCAR-3; 35.6 µM (inactive) in the test on OVCAR-4; 45.1 µM (inactive) in the test on PC-3. The GI50 in the test with RPMI-8226 was 39 µM (inactive); with SK-MEL-28, > 100 µM (inactive); in the test with SK-MEL-2, 46.1 µM (inactive); in the test with SK-MEL-5 it was 35 µM (inactive); in the test with SN12C it was 58.5 µM (inactive); in the test with SW-620, > 100 µM (inactive). Also, the GI50 in the test with UO-31 is 53 µM (inactive).

With `CCC12CN(C(=O)OC)C3C(Br)C1CCC(=O)C32` (stereo not drawn), the GI50 in the test on 786-0, in the test on A549, in the test on COLO 205, with EKVX, in the test on HOP-92 and in the test with KM12 was > 100 µM (inactive) throughout. In addition, the GI50 in the test on MOLT-4 was > 100 µM (inactive); in the test with NCI-H460, > 100 µM (inactive); in the test with NCI-H522 it was 84.1 µM (inactive); with OVCAR-3, > 100 µM (inactive); in the test with OVCAR-4 it was > 100 µM (inactive); in the test with PC-3 it was > 100 µM (inactive). Also, the GI50 with RPMI-8226, with SK-MEL-28, with SK-MEL-2, in the test on SK-MEL-5, with SW-620 and with UO-31 was > 100 µM (inactive) each time.

For `CCN1CCC(C)OP1(=O)Cc1ccccc1` (stereo not drawn), the GI50 in the test with 786-0, in the test with A549, in the test with BT-549, in the test with COLO 205, with EKVX and in the test with KM12 was > 100 µM (inactive) in each case. In addition, the GI50 in the test with NCI-H460 was > 100 µM (inactive); in the test on OVCAR-3, 46.5 µM (inactive); in the test on OVCAR-4 it was > 100 µM (inactive); in the test on PC-3, > 100 µM (inactive); in the test with RPMI-8226, > 100 µM (inactive); in the test with SK-MEL-2 it was > 100 µM (inactive). Besides, the GI50 in the test with SK-MEL-5, with SW-620 and in the test with UO-31 was > 100 µM (inactive) in each case.

Take `CC#CCCN(CC#N)Cc1ccccc1`: the GI50 in the test on 786-0, with A549, with COLO 205, with EKVX, with HOP-92 and with KM12 was > 100 µM (inactive) in each case. The GI50 in the test on MOLT-4, in the test with NCI-H460, in the test with NCI-H522, in the test with OVCAR-4, with PC-3 and in the test with RPMI-8226 was > 100 µM (inactive) each time. Further, the GI50 in the test on SK-MEL-28, with SK-MEL-2, in the test with SK-MEL-5, in the test with SN12C and in the test on UO-31 was > 100 µM (inactive) in each case.

Take `Clc1cc2c(cc1Cl)CC(NCCN1CCCC1)CC2` (stereo not drawn): the GI50 is 13.2 µM (inactive) in the test with 786-0; 14.8 µM (inactive) in the test on A549; 15 µM (inactive) in the test on BT-549; 3.07 µM (inactive) in the test on COLO 205; 18.7 µM (inactive) in the test on EKVX; 15.2 µM (inactive) with KM12. Further, the GI50 with MOLT-4 is 20.5 µM (inactive); in the test on NCI-H460, 16.4 µM (inactive); with NCI-H522, 17.1 µM (inactive); in the test with OVCAR-3, 17.1 µM (inactive); in the test on OVCAR-4, 17.2 µM (inactive); with PC-3, 15.1 µM (inactive). The GI50 in the test with RPMI-8226 was 12.6 µM (inactive); in the test with SK-MEL-28, 10.2 µM (inactive); in the test with SK-MEL-2, 17.8 µM (inactive); with SK-MEL-5 it was 3.74 µM (inactive); in the test with SN12C, 15.8 µM (inactive); with SW-620, 18.9 µM (inactive). Further, in the test with UO-31, the GI50 was 11.1 µM (inactive).

Turning to `N#C/C(=C\c1cc(Cl)cc(Cl)c1)c1ccccn1`, the GI50 with 786-0 was 21.5 µM (inactive); in the test on A549 it was 18.9 µM (inactive); in the test with BT-549, 4.71 µM (inactive); with COLO 205 it was 31.8 µM (inactive); with EKVX, 3.46 µM (inactive); in the test with KM12, 9.59 µM (inactive). Further, the GI50 in the test on MOLT-4 was 5.14 µM (inactive); in the test on NCI-H460, 7.83 µM (inactive); in the test with NCI-H522, 9.44 µM (inactive); in the test on OVCAR-3 it was 26.1 µM (inactive); with OVCAR-4 it was 53 µM (inactive); in the test with PC-3, 11.3 µM (inactive). The GI50 with RPMI-8226 is > 100 µM (inactive); with SK-MEL-28 it was 8.63 µM (inactive); in the test with SK-MEL-2 it was 92 µM (inactive); with SK-MEL-5, 8.51 µM (inactive); in the test with SN12C, > 100 µM (inactive); in the test on SW-620 it was 15.6 µM (inactive). For the same compound, the GI50 in the test with UO-31 was 43.8 µM (inactive).

In the case of `O=C(COc1ccc(Cl)cc1Cl)N/N=C/C=C/c1ccc([N+](=O)[O-])o1`, the GI50 is 12.3 µM (inactive) in the test on 786-0; 8.24 µM (inactive) with A549; 12.1 µM (inactive) in the test with BT-549; 17.5 µM (inactive) in the test with EKVX; 4.86 µM (inactive) in the test on KM12; 2.28 µM (inactive) in the test with MOLT-4. The GI50 with NCI-H460 is 8.39 µM (inactive); in the test on NCI-H522 it was 1.04 µM (active); in the test on OVCAR-3, 4.59 µM (inactive); in the test on OVCAR-4 it was 4.35 µM (inactive); in the test with PC-3, 12.6 µM (inactive); with RPMI-8226, 2.26 µM (inactive). Also, the GI50 in the test with SK-MEL-28 is 4.08 µM (inactive); with SK-MEL-2, 3.27 µM (inactive); in the test on SK-MEL-5 it was 1.96 µM (inactive); in the test on SN12C, 8.47 µM (inactive); in the test with SW-620, 5.37 µM (inactive); in the test with UO-31 it was 5.05 µM (inactive).

Regarding `O=C(CC(=O)Nc1ccccc1)N/N=C/c1cc(/N=N/c2ccc(Br)cc2)ccc1O`, the GI50 in the test with 786-0 was 4 µM (inactive); with A549 it was > 10 µM (inactive); in the test on BT-549, > 10 µM (inactive); in the test on COLO 205, 3.93 µM (inactive); with EKVX, 3.97 µM (inactive); in the test with HOP-92, > 10 µM (inactive). Further, the GI50 with KM12 is 3.58 µM (inactive); in the test on MOLT-4 it was 1.35 µM (inactive); with NCI-H460, 3.28 µM (inactive); with OVCAR-4, 2.09 µM (inactive); in the test with RPMI-8226 it was 3.68 µM (inactive); in the test on SK-MEL-28 it was 4.41 µM (inactive). Further, the GI50 with SK-MEL-5 was 8.79 µM (inactive); in the test with SN12C, 8.22 µM (inactive); in the test on SW-620 it was 4.84 µM (inactive); in the test on UO-31, 2.42 µM (inactive).
